Assay: Oil recovery from formation core by brine displacement followed by DMS displacement
Conditions: after waterflooding with a brine solution
Protocol: Incremental recovery of oil from a formation core using an oil recovery formulation consisting of dimethyl sulfide following oil recovery from the core by water-flooding was measured to evaluate the effectiveness of DMS as a tertiary oil recovery agent.
Two 5.02 cm long Berea sandstone cores with a core diameter of 3.78 cm and a permeability between 925 and 1325 mD were saturated with a brine having a composition as set forth in Table 7.
After saturation of the cores with brine, the brine was displaced by a Middle Eastern Asphaltic crude oil having the characteristics as set forth above in Table 3 to saturate the cores with oil.
Oil was recovered from each oil saturated core by the addition of brine to the core under pressure and by subsequent addition of DMS to the core under pressure. Each core was treated as follows to determine the amount of oil recovered from the core by addition of brine followed by addition of DMS. Oil was initially displaced from the core by addition of brine to the core under pressure. A confining pressure of 1 MPa was applied to the core during addition of the brine, and the flow rate of brine to the core was set at 0.05 ml/min. The core was maintained at a temperature of 50° C. during displacement of oil from the core with brine. […]

CSC [Dimethyl Sulfide, dimethyl sulfide]
Oil recovered, of the oil remaining in the core after the waterflood: approximately 60%

Reference: US20140000886A1, “PETROLEUM RECOVERY PROCESS AND SYSTEM” (Shell Oil Company, priority 2012, published 2014)
